Source: patent US12285012B2, “Compositions comprising pyridine carboxylate herbicides with acetolactate synthase (ALS) inhibitor herbicides” (Corteva Agriscience LLC, priority 2018, dated 2025)
Several values for one entry are separate records, joined by “and”; a condition that tells them apart may be missing. Equal values may be shown once. Read-outs that look alike come from different tables or passages of the source.

Key:
spring wheat (TRZAS) = type: in vivo, Triticum aestivum; settings: for % visual injury Obs-Exp: Pyroxsulam 0
Procedure, shortened: (§1)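 Plants at the second or third true leaf stage, grown at about 23/22 °C day/night with a 14 h photoperiod, were sprayed postemergence. Emulsifiable concentrates held cloquintocet-mexyl safener at 120 g ai/L; rates are g ae/ha (pyridine carboxylate) or g ai/ha (ALS inhibitor). Injury was scored visually against solvent-blank controls at 20-22 d (0-100%).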

[1] = test system: pineapple weed (MATMT, Matricaria discoidea); experiment: Greenhouse postemergence herbicidal effect; type: in vivo
Procedure, shortened: as §1

[2] = test system: wild chamomile (MATCH, Matricaria chamomilla); experiment: Greenhouse postemergence herbicidal effect; type: in vivo
Procedure, shortened: as §1

[3] = test system: pigweed (AMARE, Amaranthus retroflexus); experiment: Greenhouse postemergence herbicidal effect; type: in vivo
Procedure, shortened: as §1

[4] = test system: winter rape (BRSNW, Brassica napus); experiment: Greenhouse postemergence herbicidal effect; type: in vivo
Procedure, shortened: as §1

[5] = test system: chickweed (STEME, Stellaria media); experiment: Greenhouse postemergence herbicidal effect; type: in vivo
Procedure, shortened: as §1

[6] = test system: Russian thistle (SASKR, Salsola kali); experiment: Greenhouse postemergence herbicidal effect; type: in vivo
Procedure, shortened: as §1

[7] = test system: wild buckwheat (POLCO, Polygonum convolvulus); experiment: Greenhouse postemergence herbicidal effect; type: in vivo
Procedure, shortened: as §1

[8] = test system: wild pansy (VIOTR, Viola tricolor); experiment: Greenhouse postemergence herbicidal effect; type: in vivo
Procedure, shortened: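 Injury was rated visually after 20-22 d on a 0 (none) to 100% (complete kill) scale relative to solvent-sprayed controls, with sub-irrigation to avoid wash-off. Rates were given in g ae/ha or g ai/ha depending on component.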

[9] = test system: Canadian thistle (CIRAR, Cirsium arvense); experiment: Greenhouse postemergence herbicidal effect; type: in vivo
Procedure, shortened: as §1

[10] = test system: kochia (KCHSC, Kochia scoparia); experiment: Greenhouse postemergence herbicidal effect; type: in vivo
Procedure, shortened: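 Plants at the second or third true leaf stage received overhead spray at 187 L/ha, with the pyridine carboxylate (plus cloquintocet-mexyl safener) alone or with ALS herbicides in 1.25% v/v crop oil. Rates are in g ae/ha or g ai/ha. Visual injury versus solvent-blank controls was scored 0–100% after 20-22 d in the greenhouse.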

[11] = Compound A 10 g/ha (Examples 62-63)
[12] = Compound A 10 g/ha, safener mefenpyr-diethyl

N#CCOC(=O)c1nc(-c2ccc3cc[nH]c3c2F)c(F)c(N)c1Cl [Compound A, cyanomethyl 4-amino-3-chloro-5-fluoro-6-(7-fluoro-1H-indol-6-yl)pyridine-2-carboxylate]
% visual injury, Obs (spring wheat (TRZAS); 10 g/ha): 0% | % visual injury (spring wheat (TRZAS); Compound A 10 g/ha): 0% and 3% | % visual injury Obs (spring wheat (TRZAS); Compound A 10 g/ha): 0% | % visual injury, Obs (spring wheat (TRZAS); Compound A 10 g/ha): 0% | TRZAS % visual injury Obs (spring wheat (TRZAS); [11]): 0% | % visual injury, Obs (spring wheat (TRZAS); [12]): 3% | TRZAS % visual injury Obs (spring wheat (TRZAS); [12]): 3% | % visual injury (spring wheat (TRZAS); Compound A 15 g/ha): 0% | % visual injury Obs (spring wheat (TRZAS); Compound A 15 g/ha): 0% | % visual injury, Obs (spring wheat (TRZAS); TRZAS, Compound A 10 g/ha): 0% | Obs % visual injury (spring wheat (TRZAS); TRZAS, Compound A 10 g/ha): 0% | Obs % visual injury (spring wheat (TRZAS); TRZAS, Compound A 10 g/ha (Table 65)): 0% | Obs % visual injury (spring wheat (TRZAS); TRZAS, Compound A 10 g/ha (Table 66)): 0% | Obs % visual injury (spring wheat (TRZAS); TRZAS, Compound A 10 g/ha (Table 67)): 3% | % visual injury, Obs (spring wheat (TRZAS); TRZAS, Compound A 15 g/ha): 0% | Obs % visual injury (spring wheat (TRZAS); TRZAS, Compound A 15 g/ha): 0% | Obs % visual injury (spring wheat (TRZAS); TRZAS, Compound A 15 g/ha (Table 67)): 0% | % visual injury Obs-Exp (spring wheat (TRZAS); printed under Compound A 10 g/ha): 0% | % visual injury Obs-Exp (spring wheat (TRZAS); printed under Compound A 15 g/ha): 0% | % visual injury ([1]; Compound A 10 g/ha): 15% | % visual injury ([1]; Compound A 15 g/ha): 30% | % visual injury ([2]; Compound A 10 g/ha): 40% and 30% and 45% | % visual injury, Obs ([2]; Compound A 10 g/ha): 13% | MATCH % visual injury Obs [2, 11]: 13% | % visual injury ([2]; Compound A 15 g/ha): 50% and 45% | % visual injury Obs ([2]; Compound A 15 g/ha): 45% | Obs % visual injury ([2]; MATCH, Compound A 10 g/ha (Table 65)): 13% | Obs % visual injury ([2]; MATCH, Compound A 10 g/ha (Table 66)): 30% | Obs % visual injury ([2]; MATCH, Compound A 10 g/ha (Table 67)): 15% | % visual injury, Obs ([2]; MATCH, Compound A 15 g/ha): 45% | Obs % visual injury ([2]; MATCH, Compound A 15 g/ha): 45% | Obs % visual injury ([2]; MATCH, Compound A 15 g/ha (Table 67)): 10% | % visual injury, Obs ([3]; 10 g/ha): 90% | % visual injury, Obs ([3]; AMARE, Compound A 10 g/ha): 75% | Obs % visual injury ([3]; AMARE, Compound A 10 g/ha): 75% and 85% and 100% | Obs % visual injury ([3]; AMARE, Compound A 10 g/ha (Table 65)): 100% | Obs % visual injury ([3]; AMARE, Compound A 10 g/ha (Table 66)): 90% | Obs % visual injury ([3]; AMARE, Compound A 10 g/ha (Table 67)): 78% | % visual injury, Obs ([3]; AMARE, Compound A 15 g/ha): 80% | Obs % visual injury ([3]; AMARE, Compound A 15 g/ha): 80% | Obs % visual injury ([3]; AMARE, Compound A 15 g/ha (Table 67)): 83% | % visual injury ([3]; Compound A 10 g/ha): 73% and 90% and 75% | % visual injury Obs ([3]; Compound A 10 g/ha): 75% and 100% and 85% | % visual injury, Obs ([3]; Compound A 10 g/ha): 100% | AMARE % visual injury Obs [3, 11]: 100% | % visual injury, Obs [3, 12]: 98% | AMARE % visual injury Obs [3, 12]: 98% | % visual injury ([3]; Compound A 15 g/ha): 80% | % visual injury Obs ([3]; Compound A 15 g/ha): 80% | % visual injury, Obs ([4]; 10 g/ha): 68% | % visual injury, Obs ([4]; BRSNW, Compound A 10 g/ha): 45% | Obs % visual injury ([4]; BRSNW, Compound A 10 g/ha): 45% and 40% | Obs % visual injury ([4]; BRSNW, Compound A 10 g/ha (Table 66)): 68% | Obs % visual injury ([4]; BRSNW, Compound A 10 g/ha (Table 67)): 60% | % visual injury, Obs ([4]; BRSNW, Compound A 15 g/ha): 73% | Obs % visual injury ([4]; BRSNW, Compound A 15 g/ha): 73% | Obs % visual injury ([4]; BRSNW, Compound A 15 g/ha (Table 67)): 75% | % visual injury ([4]; Compound A 10 g/ha): 75% and 43% and 68% and 45% | % visual injury Obs ([4]; Compound A 10 g/ha): 45% and 40% | % visual injury ([4]; Compound A 15 g/ha): 75% and 73% | % visual injury Obs ([4]; Compound A 15 g/ha): 73% | % visual injury ([5]; Compound A 10 g/ha): 100% | % visual injury, Obs [5, 12]: 83% | STEME % visual injury Obs [5, 12]: 83% | % visual injury ([5]; Compound A 15 g/ha): 100% | % visual injury, Obs ([6]; 10 g/ha): 60% and 63% | % visual injury ([6]; Compound A 10 g/ha): 70% and 63% | % visual injury Obs ([6]; Compound A 10 g/ha): 60% and 63% | % visual injury, Obs ([6]; Compound A 10 g/ha): 65% | SASKR % visual injury Obs [6, 11]: 65% | % visual injury ([6]; Compound A 15 g/ha): 75% | % visual injury, Obs ([6]; SASKR, Compound A 10 g/ha): 60% | Obs % visual injury ([6]; SASKR, Compound A 10 g/ha): 63% and 65% | Obs % visual injury ([6]; SASKR, Compound A 10 g/ha (Table 65)): 65% | Obs % visual injury ([6]; SASKR, Compound A 10 g/ha (Table 67)): 58% | Obs % visual injury ([6]; SASKR, Compound A 15 g/ha (Table 67)): 65% | % visual injury, Obs ([7]; 10 g/ha): 70% | % visual injury ([7]; Compound A 10 g/ha): 95% and 93% and 70% and 98% | % visual injury, Obs ([7]; Compound A 10 g/ha): 91% | POLCO % visual injury Obs [7, 11]: 91% | % visual injury, Obs [7, 12]: 100% | POLCO % visual injury Obs [7, 12]: 100% | % visual injury ([7]; Compound A 15 g/ha): 97% and 88% | % visual injury Obs ([7]; Compound A 15 g/ha): 88% | % visual injury, Obs ([7]; POLCO, Compound A 10 g/ha): 98% and 78% | Obs % visual injury ([7]; POLCO, Compound A 10 g/ha (Table 65)): 91% | Obs % visual injury ([7]; POLCO, Compound A 10 g/ha (Table 66)): 70% | Obs % visual injury ([7]; POLCO, Compound A 10 g/ha (Table 67)): 60% | % visual injury, Obs ([7]; POLCO, Compound A 15 g/ha): 88% | Obs % visual injury ([7]; POLCO, Compound A 15 g/ha): 88% | Obs % visual injury ([7]; POLCO, Compound A 15 g/ha (Table 67)): 63% | % visual injury, Obs ([8]; 10 g/ha): 23% | % visual injury ([8]; Compound A 10 g/ha): 10% | % visual injury, Obs [8, 12]: 18% | VIOTR % visual injury Obs [8, 12]: 18% | % visual injury ([8]; Compound A 15 g/ha): 10% | Obs % visual injury ([9]; CIRAR, Compound A 10 g/ha (Table 65)): 20% | Obs % visual injury ([9]; CIRAR, Compound A 10 g/ha (Table 66)): 30% | Obs % visual injury ([9]; CIRAR, Compound A 15 g/ha): 55% | pest or weed control at 10 g/ha ([9]; Cirsium arvense, post-emergence, 10 g/ha, read-out: % visual injury, Obs): 43% | pest or weed control at 10 g/ha ([9]; Cirsium arvense, post-emergence, CIRAR, Compound A 10 g/ha, read-out: % visual injury, Obs): 33% | pest or weed control at 15 g/ha ([9]; Cirsium arvense, post-emergence, CIRAR, Compound A 15 g/ha, read-out: % visual injury, Obs): 55% | pest or weed control at 10 g/ha ([9]; Cirsium arvense, post-emergence, Compound A 10 g/ha, read-out: % visual injury, Obs): 20% | pest or weed control at 10 g/ha ([9]; Cirsium arvense, post-emergence, Compound A 10 g/ha, safener mefenpyr-diethyl, read-out: % visual injury, Obs): 43% | % visual injury ([9]; Compound A 10 g/ha): 40% and 60% and 30% and 33% | % visual injury Obs ([9]; Compound A 10 g/ha): 33% and 55% | CIRAR % visual injury Obs [9, 11]: 20% | CIRAR % visual injury Obs [9, 12]: 43% | % visual injury ([9]; Compound A 15 g/ha): 65% and 55% | % visual injury Obs ([9]; Compound A 15 g/ha): 55% | pest or weed control at 10 g/ha ([10]; Bassia scoparia, post-emergence, 10 g/ha, read-out: % visual injury, Obs): 68% | pest or weed control at 10 g/ha ([10]; Bassia scoparia, post-emergence, Compound A 10 g/ha, read-out: % visual injury, Obs): 65% | pest or weed control at 10 g/ha ([10]; Bassia scoparia, post-emergence, Compound A 10 g/ha, safener mefenpyr-diethyl, read-out: % visual injury, Obs): 70% | pest or weed control at 10 g/ha ([10]; Bassia scoparia, post-emergence, KCHSC, Compound A 10 g/ha, read-out: % visual injury, Obs): 68% | pest or weed control at 15 g/ha ([10]; Bassia scoparia, post-emergence, KCHSC, Compound A 15 g/ha, read-out: % visual injury, Obs): 68% | % visual injury ([10]; Compound A 10 g/ha): 75% and 63% and 70% and 68% | % visual injury Obs ([10]; Compound A 10 g/ha): 68% and 58% and 70% | KCHSC % visual injury Obs [10, 11]: 65% | KCHSC % visual injury Obs [10, 12]: 70% | % visual injury ([10]; Compound A 15 g/ha): 75% and 68% | % visual injury Obs ([10]; Compound A 15 g/ha): 68% | Obs % visual injury ([10]; KCHSC, Compound A 10 g/ha): 68% and 70% and 65% | Obs % visual injury ([10]; KCHSC, Compound A 10 g/ha (Table 65)): 65% | Obs % visual injury ([10]; KCHSC, Compound A 10 g/ha (Table 66)): 70% | Obs % visual injury ([10]; KCHSC, Compound A 10 g/ha (Table 67)): 70% | Obs % visual injury ([10]; KCHSC, Compound A 15 g/ha): 68% | Obs % visual injury ([10]; KCHSC, Compound A 15 g/ha (Table 67)): 70%
